Laboratory results published in publication PMC12613816, “Discovery of Novel Isoxazole-Based Small-Molecule Toll-Like Receptor 8 Antagonists” (Journal of Medicinal Chemistry, 2025).

Legend:
TLR8 [1] = target: T1, TLR8 (Homo sapiens, UniProt Q9NR97); assay: Inhibition of TL8-506-stimulated NF-κB activity (SEAP reporter, QuantiBlue) in hTLR8-HEK293 reporter cells; assay type: cell-based; set-up: host or cells: HEK293 (HEK-Blue hTLR8); details: for inhibition at 10 µM: read-out: % inhibition at 10 µM ± SEM (NF-κB activity); for IC50: read-out: IC50 [μM] (95% CI) hTLR8-HEK293, inhibition of NF-κB activity, 1 h preincubation
T1 sequence (Q9NR97 27-1041): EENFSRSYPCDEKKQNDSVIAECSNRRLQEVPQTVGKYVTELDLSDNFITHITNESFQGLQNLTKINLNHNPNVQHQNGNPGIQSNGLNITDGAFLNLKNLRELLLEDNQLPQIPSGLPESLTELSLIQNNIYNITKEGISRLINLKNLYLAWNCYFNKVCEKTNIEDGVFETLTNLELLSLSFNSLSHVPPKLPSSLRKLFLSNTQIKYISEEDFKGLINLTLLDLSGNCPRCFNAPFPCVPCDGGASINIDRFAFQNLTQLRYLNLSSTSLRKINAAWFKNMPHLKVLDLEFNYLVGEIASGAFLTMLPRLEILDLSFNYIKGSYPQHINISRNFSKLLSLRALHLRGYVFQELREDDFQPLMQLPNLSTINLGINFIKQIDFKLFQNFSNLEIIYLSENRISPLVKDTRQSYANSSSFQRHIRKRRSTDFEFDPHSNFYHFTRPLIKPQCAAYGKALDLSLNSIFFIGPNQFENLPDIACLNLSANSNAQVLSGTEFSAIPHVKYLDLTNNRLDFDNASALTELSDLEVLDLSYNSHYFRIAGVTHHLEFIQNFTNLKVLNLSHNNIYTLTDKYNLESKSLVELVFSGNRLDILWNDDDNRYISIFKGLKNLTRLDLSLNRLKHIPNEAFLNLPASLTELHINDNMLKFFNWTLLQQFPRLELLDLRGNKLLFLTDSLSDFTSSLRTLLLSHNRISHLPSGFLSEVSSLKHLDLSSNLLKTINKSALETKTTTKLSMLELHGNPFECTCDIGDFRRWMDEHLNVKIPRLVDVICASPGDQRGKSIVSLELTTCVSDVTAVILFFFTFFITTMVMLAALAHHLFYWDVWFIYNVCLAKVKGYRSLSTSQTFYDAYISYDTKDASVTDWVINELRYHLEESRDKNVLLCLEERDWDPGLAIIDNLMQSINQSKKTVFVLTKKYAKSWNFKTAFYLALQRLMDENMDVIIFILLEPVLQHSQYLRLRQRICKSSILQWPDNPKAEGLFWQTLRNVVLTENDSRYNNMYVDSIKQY

TLR8 [2] = target: T1, TLR8; details: TL8-506 alone
[3] = 10 µM compound, TL8-506 (0.6 μM) 24 h, hTLR8-HEK293

Compound	inhibition at 10 µM (TLR8 [1]; [3]) [%]	IC50 (TLR8 [1]; TL8-506 (0.6 μM) 24 h) [µM]	further results
Cc1noc(C)c1COc1cccc(C(=O)N2CCCC(C)C2CN)c1 (stereo not shown) [Compound 2]	3 ± 2	–	–
Cc1noc(C)c1COc1cccc(C(=O)N2CCN(C)CC2C)c1 (stereo not shown) [Compound 3]	-6 ± 2	–	–
Cc1noc(C)c1COc1ccc(C(=O)NCC(c2c(F)cccc2Cl)N(C)C)cc1 (stereo not shown) [Compound 5]	37 ± 7	–	–
Cc1noc(C)c1COc1cccc(C(=O)NCCN(C(C)C)C(C)C)c1 [Compound 6]	9 ± 4	–	–
Cc1noc(C)c1COc1cccc(C(=O)N2CCCN(Cc3ccc(C(F)(F)F)cc3)CC2)c1 [Compound 7]	5 ± 7	–	–
CCN1CCC(CNC(=O)c2cccc(OCc3c(C)noc3C)c2)CC1 [Compound 8]	20 ± 4	–	–
COc1cc(C(=O)NCCN2CCCC2)ccc1OCc1c(C)noc1C [Compound 11]	–	6.62	–
Cc1noc(C)c1COc1ccc(C(=O)N2CCN(Cc3ccccc3)CC2)cc1 [Compound 17, 4-Benzylpiperazin-1-yl(4-((3,5-Dimethylisoxazol-4-yl)methoxy)phenyl)methanone]	52 ± 4	–	inhibition of NF-κB at 10 μM (in words) (TLR8 [1]; hTLR8-HEK293): moderate
Cc1noc(C)c1COc1ccc(C(=O)NCCN2CCCC2)cc1 [Compound 18, 4-((3,5-Dimethylisoxazol-4-yl)methoxy)-N-(2-(pyrrolidin-1-yl)ethyl)benzamide]	61 ± 3	–	–
Cc1noc(C)c1COc1ccc(C(=O)NC2CCN(C)C2)cc1 (stereo not shown) [Compound 19, 4-((3,5-Dimethylisoxazol-4-yl)methoxy)-N-(1-methylpyrrolidin-3-yl)benzamide]	89 ± 2	3.06	–
Cc1noc(C)c1COc1ccc(C(=O)NN2CCN(C)CC2)cc1 [Compound 20, 4-((3,5-Dimethylisoxazol-4-yl)methoxy)-N-(4-methylpiperazin-1-yl)benzamide]	63 ± 0.7	–	–
Cc1noc(C)c1COc1ccc(C(=O)N2CCC(N3CCCC3)CC2)cc1 [Compound 21, (4-((3,5-Dimethylisoxazol-4-yl)methoxy)phenyl)(4-(pyrrolidin-1-yl)piperidin-1-yl)methanone]	75 ± 2	–	–
COc1cc(C(=O)N2CCN(Cc3ccccc3)CC2)ccc1OCc1c(C)noc1C [Compound 22, (4-Benzylpiperazin-1-yl)(4-((3,5-dimethylisoxazol-4-yl)methoxy)-3-methoxyphenyl)methanone]	54 ± 3	–	inhibition of NF-κB at 10 μM (in words) (TLR8 [1]; hTLR8-HEK293): moderate
COc1cc(C(=O)NN2CCN(C)CC2)ccc1OCc1c(C)noc1C [Compound 23, 4-((3,5-Dimethylisoxazol-4-yl)methoxy)-3-methoxy-N-(4-methylpiperazin-1-yl)benzamide]	57 ± 3	–	inhibition of NF-κB at 10 μM (in words) (TLR8 [1]; hTLR8-HEK293): moderate
COc1cc(C(=O)N2CCC(N3CCCC3)CC2)ccc1OCc1c(C)noc1C [Compound 24, (4-((3,5-Dimethylisoxazol-4-yl)methoxy)-3-methoxyphenyl)(4-(pyrrolidin-1-yl)piperidin-1-yl)methanone]	96 ± 2	3.46	–
COc1cc(C(=O)N2CCC(N3CCCCC3)CC2)ccc1OCc1c(C)noc1C [Compound 26, [1,4′-Bipiperidin]-1′-yl(4-((3,5-dimethylisoxazol-4-yl)methoxy)-3-methoxyphenyl)methanone]	77 ± 4	18.3	–
COc1cc(C(=O)NC2CCN(C)C2)ccc1OCc1c(C)noc1C (stereo not shown) [Compound 27, 4-((3,5-Dimethylisoxazol-4-yl)methoxy)-3-methoxy-N-(1-methylpyrrolidin-3-yl)benzamide]	84 ± 4	8.15	–

Compound	inhibition at 10 µM (TLR8 [1]; [3]) [%]	IC50 (TLR8 [1]; TL8-506 (0.6 μM) 24 h) [µM]	further results
COc1cc(C(=O)NC2CCN(C(C)C)CC2)ccc1OCc1c(C)noc1C [Compound 28, 4-((3,5-Dimethylisoxazol-4-yl)methoxy)-N-(1-isopropylpiperidin-4-yl)-3-methoxybenzamide]	97 ± 1	1.73	–
CCN1CCC(NC(=O)c2ccc(OCc3c(C)noc3C)c(OC)c2)C1 (stereo not shown) [Compound 29, 4-((3,5-Dimethylisoxazol-4-yl)methoxy)-N-(1-ethylpyrrolidin-3-yl)-3-methoxybenzamide]	72 ± 5	–	–
COc1cc(C(=O)N2CCN(CCO)CC2)ccc1OCc1c(C)noc1C [Compound 30, (4-((3,5-Dimethylisoxazol-4-yl)methoxy)-3-methoxyphenyl)(4-(2-hydroxyethyl)piperazin-1-yl)methanone]	24 ± 9	–	inhibition of NF-κB at 10 μM (in words) (TLR8 [1]; hTLR8-HEK293): low inhibition
CCCN1CCC(NC(=O)c2ccc(OCc3c(C)noc3C)c(OC)c2)CC1 [Compound 31, 4-((3,5-Dimethylisoxazol-4-yl)methoxy)-3-methoxy-N-(1-propylpiperidin-4-yl)benzamide]	98 ± 0.3	1.66	–
COc1cc(C(=O)NCC2CCN(C)C2)ccc1OCc1c(C)noc1C (stereo not shown) [Compound 32, 4-((3,5-Dimethylisoxazol-4-yl)methoxy)-3-methoxy-N-((1-methylpyrrolidin-3-yl)methyl)benzamide]	77 ± 5	–	–
COc1cc(C(=O)NC2CCN(C)CC2)ccc1OCc1c(C)noc1C [Compound 33, 4-((3,5-Dimethylisoxazol-4-yl)methoxy)-3-methoxy-N-(1-methylpiperidin-4-yl)benzamide]	94 ± 2	–	–
Cc1noc(C)c1COc1ccc(C(=O)NC2CCN(C)CC2)cc1 [Compound 34, 4-((3,5-Dimethylisoxazol-4-yl)methoxy)-N-(1-methylpiperidin-4-yl)benzamide]	97 ± 0.9	1.68	–
Cc1noc(C)c1COc1ccc(C(=O)NC2CCN(C(C)C)CC2)cc1 [Compound 35, 4-((3,5-Dimethylisoxazol-4-yl)methoxy)-N-(1-isopropylpiperidin-4-yl)benzamide]	99 ± 0.2	0.99	–
Cc1noc(C)c1COc1ccc(C(=O)N2CCN(CCO)CC2)cc1 [Compound 36, (4-((3,5-Dimethylisoxazol-4-yl)methoxy)phenyl)(4-(2-hydroxyethyl)piperazin-1-yl)methanone]	26 ± 2	–	inhibition of NF-κB at 10 μM (in words) (TLR8 [1]; hTLR8-HEK293): low inhibition
Cc1noc(C)c1COc1ccc(C(=O)NCC2CCN(C)C2)cc1 (stereo not shown) [Compound 37, 4-((3,5-Dimethylisoxazol-4-yl)methoxy)-N-((1-methylpyrrolidin-3-yl)methyl)benzamide]	80 ± 2	–	–
CCCN1CCC(NC(=O)c2ccc(OCc3c(C)noc3C)cc2)CC1 [Compound 38, 4-((3,5-Dimethylisoxazol-4-yl)methoxy)-N-(1-propylpiperidin-4-yl)benzamide]	100 ± 0.1	0.78	–
CCN1CCC(NC(=O)c2ccc(OCc3c(C)noc3C)cc2)CC1 [Compound 39, 4-((3,5-Dimethylisoxazol-4-yl)methoxy)-N-(1-ethylpiperidin-4-yl)benzamide]	100 ± 0.2	1.1	–
CCCCN1CCC(NC(=O)c2ccc(OCc3c(C)noc3C)cc2)CC1 [Compound 40, N-(1-Butylpiperidin-4-yl)-4-((3,5-dimethylisoxazol-4-yl)methoxy)benzamide]	99 ± 0.4	0.73	–
C=CCN1CCC(NC(=O)c2ccc(OCc3c(C)noc3C)cc2)CC1 [Compound 41, N-(1-Allylpiperidin-4-yl)-4-((3,5-dimethylisoxazol-4-yl)methoxy)benzamide]	99 ± 0.7	0.5	–
Cc1noc(C)c1COc1ccc(C(=O)NC2CCNCC2)cc1 [Compound 43, 4-((3,5-Dimethylisoxazol-4-yl)methoxy)-N-(piperidin-4-yl)benzamide]	32	–	–
CCOC(=O)C1=Cc2ccc(-c3cccc(C#N)c3)cc2N=C(N)C1 [TL8-506]	–	–	ECmax [%] (95% CI) of TL8-506 (TLR8 [2]): 97.6 (92.9-104.7) %; EC50 (TLR8 [2]; read-out: EC50 [µM] (95% CI) of TL8-506): 0.19 µM
(4-((3,5-Dimethylisoxazol-4-yl)methoxy)-3-methoxyphenyl)(5-methylhexahydropyrrolo[3,4-c]pyrrol-2(1H)-yl)methanone [Compound 25]	–	–	% inhibition at 10 µM ± SEM (NF-κB activity) (TLR8 [1]; [3]): 68 ± 6%
